Laboratory results: US9828364B2, “Pyrazole compounds as BTK inhibitors” (Boehringer Ingelheim International GmbH, priority 2014, dated 2017)

Each compound was assayed on BTK activity measured by IL-6 production in primary CD19+ cells (assay: Inhibition of IL-6 production in B cells co-stimulated with ODN 2006 and anti-hIgD). Conditions: B-cell, anti-human IgD + ODN 2006, 18-24 hours.
Assay type: cell-based
Method: (§1) The compounds described herein show a range of selectivities against EGFR as measured in cellular assays (BTK activity measured by IL-6 production in primary CD19^+ cells; EGFR activity measured by EGFR phosphorylation in A431 cells).
Inhibition of IL-6 Production in B Cells Co-Stimulated with ODN 2006 and Anti-hIgD
Primary CD19+ B cells (AllCells # PB010F) are thawed and plated in RPMI containing 10% HI FBS in a 384-well tissue cultured plate at 20,000 cells/well. The cells are treated with test compound (0.5% DMSO final concentration) and incubated for 1 hour at 37° C., 5% CO2. Cells are then stimulated with 5 ug/mL Goat F(ab′)2 anti-human IgD (SouthernBiotech #2032) and 2 uM ODN 2006 (InvivoGen # tlrl-2006) and incubated for 18-24 hours at 37° C., 5% CO2. IL-6 in the supernatant is measured using Meso Scale Discovery kit # K211AKB-6.

IC50	SMILES
5.1 nM	CC#CC(=O)N1CC[C@]2(C1)C[C@H](n1nc(-c3ccc(C(O)C(C)C)cc3)c(C(N)=O)c1N)C2 (stereo partly shown) [Example 19]
7 nM	CC#CC(=O)N1CC[C@]2(C1)C[C@H](n1nc(-c3ccc(CCO)cc3)c(C(N)=O)c1N)C2 [Example 25]
2.4 nM	CC#CC(=O)N1CC[C@]2(C1)C[C@H](n1nc(-c3ccc(COC)cc3)c(C(N)=O)c1N)C2 [Example 5]
6.3 nM	CC#CC(=O)N1CCC[C@]2(C1)C[C@H](n1nc(-c3ccc(COC)cc3)c(C(N)=O)c1N)C2 [Example 9]
93 nM	CC#CC(=O)N1CC[C@]2(C1)C[C@H](n1nc(-c3ccc(S(C)(=O)=O)cc3)c(C(N)=O)c1N)C2 [Example 27]

These compounds were tested against T1, full-length human His-tagged BTK (Homo sapiens, UniProt Q06187) (assay: BTK HTRF assay (Cisbio KinEASE-TK)). Conditions: 6 nM BTK, 30 uM ATP, 15 min preincubation.
T1 construct: 6 nM of full-length human His-tagged BTK (Life Technologies cat # PV3587); His; purchased Life Technologies PV3587
T1 sequence (Q06187 whole entry): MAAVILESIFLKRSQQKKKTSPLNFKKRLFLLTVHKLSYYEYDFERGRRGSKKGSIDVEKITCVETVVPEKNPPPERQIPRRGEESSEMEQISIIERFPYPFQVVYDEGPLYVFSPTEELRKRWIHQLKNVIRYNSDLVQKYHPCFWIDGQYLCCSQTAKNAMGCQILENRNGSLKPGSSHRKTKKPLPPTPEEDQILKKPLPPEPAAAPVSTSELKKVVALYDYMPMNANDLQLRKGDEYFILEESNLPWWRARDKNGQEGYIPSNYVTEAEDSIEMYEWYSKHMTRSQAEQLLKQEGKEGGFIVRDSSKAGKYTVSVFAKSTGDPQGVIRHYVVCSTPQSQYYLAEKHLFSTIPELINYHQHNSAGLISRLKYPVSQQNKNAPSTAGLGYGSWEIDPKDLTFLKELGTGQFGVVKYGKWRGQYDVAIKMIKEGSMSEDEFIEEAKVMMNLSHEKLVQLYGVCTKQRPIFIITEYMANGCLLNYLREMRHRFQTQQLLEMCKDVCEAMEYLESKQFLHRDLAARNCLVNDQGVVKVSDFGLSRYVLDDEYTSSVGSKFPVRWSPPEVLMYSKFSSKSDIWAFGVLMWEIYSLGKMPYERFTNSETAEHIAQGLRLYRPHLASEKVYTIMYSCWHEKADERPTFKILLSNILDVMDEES
Assay type: biochemical
Method: Description of Biological Properties BTK Assay
An HTRF assay (Cisbio KinEASE-TK cat #62TK0PEC) was performed to quantitate the ability of test compounds to inhibit BTK mediated phosphorylation of substrate. Assays were assembled in 384 well plates where 6 nM of full-length human His-tagged BTK (Life Technologies cat # PV3587) and test compound at varying concentrations were preincubated for 15 minutes at 28° C. Then, 1 uM of TK substrate-biotin and 30 uM ATP were added and incubated for an additional 30 minutes at 28° C. Phospohrylation was detected by adding 62.5 nM Streptavidin-XL665 and TK-Antibody Cryptate diluted 1:100 in HTRF detection buffer (Cisbio cat #62SDBRDF) and incubated for 60 minutes at RT. The plate was read on an Envision plate reader and the fluorescence is measured at 620 nm (cryptate) and 665 nm (XL665). A ratio is calculated (665/620) and converted to POC relative to control and blank wells.
50 mM HEPES (Invitrogen #15630), 0.01% Brij-35 (sigma #B4184), 10 mM MgCl2 (Sigma M1028), 1 mM EGTA (Ambion AM9262) and 100 uM sodium orthovanedate (Sigma S6508), 1 mM DTT (Sigma D5545) and 10 nM supplement enzyme buffer (Cisbio cat#61SEBALB).

SMILES	IC50
C=CC(=O)N1CCC[C@]2(C1)C[C@H](n1nc(-c3ccc(COC)cc3)c(C(N)=O)c1N)C2 [Example 7]	450 nM
C=CC(=O)N1CCC[C@]2(C1)C[C@@H](n1nc(-c3ccc(C(O)C4CC4)cc3)c(C(N)=O)c1N)C2 (stereo partly shown) [Example 23]	68 nM
COCc1ccc(-c2nn([C@H]3C[C@@]4(CCN(C(=O)C#CC5CC5)C4)C3)c(N)c2C(N)=O)cc1 [Example 13]	0.7 nM
C=CC(=O)N1CCC[C@]2(C1)C[C@@H](n1nc(-c3ccc(COC)cc3)c(C(N)=O)c1N)C2 [Example 6]	460 nM
C=CC(=O)N1CC[C@]2(C1)C[C@H](n1nc(-c3ccc(CO)cc3)c(C(N)=O)c1N)C2 [Example 20]	66 nM
COCc1ccc(-c2nn([C@H]3C[C@@]4(CCN(C(=O)C#CC5CCC5)C4)C3)c(N)c2C(N)=O)cc1 [Example 14]	0.6 nM
C=CC(=O)N1CC2(CC(n3nc(-c4ccc(COC)cc4)c(C(N)=O)c3N)C2)C1 [Example 3]	94 nM
C=CC(=O)N1CC[C@]2(C1)C[C@H](n1nc(-c3ccc(COC)cc3)c(C(N)=O)c1N)C2 [Example 4]	26 nM
C=CC(=O)N1CC2(CC(n3nc(-c4ccc(C(C)OCC)cc4)c(C(N)=O)c3N)C2)C1 (stereo not shown) [Example 1]	100 nM
CCOC(C)c1ccc(-c2nn([C@H]3C[C@@]4(CCN(C(=O)C#CC5CC5)C4)C3)c(N)c2C(N)=O)cc1 (stereo partly shown) [Example 17]	1.2 nM
CC#CC(=O)N1CCC[C@]2(C1)C[C@H](n1nc(-c3ccc(COC)cc3)c(C(N)=O)c1N)C2 [Example 9]	8.2 nM
CC#CC(=O)N1CCC[C@]2(C1)C[C@@H](n1nc(-c3ccc(COC)cc3)c(C(N)=O)c1N)C2 [Example 8]	160 nM
C=CC(=O)N1CC2(CC(n3nc(-c4ccc(C(C)OC)cc4)c(C(N)=O)c3N)C2)C1 (stereo not shown) [Example 2]	200 nM
C=CC(=O)N1CC2(CC(n3nc(-c4ccc(C5(CO)CC5)cc4)c(C(N)=O)c3N)C2)C1 [Example 24]	240 nM
CCC#CC(=O)N1CC[C@]2(C1)C[C@H](n1nc(-c3ccc(COC)cc3)c(C(N)=O)c1N)C2 [Example 12]	0.9 nM

Further lines, results first:

IC50	SMILES
59 nM	CC#CC(=O)N1CCC[C@]2(C1)C[C@H](n1nc(-c3ccc(C(O)C4CC4)cc3)c(C(N)=O)c1N)C2 (stereo partly shown) [Example 22]
2.4 nM	CC#CC(=O)N1CC[C@]2(C1)C[C@H](n1nc(-c3ccc(C4(CO)CC4)cc3)c(C(N)=O)c1N)C2 [Example 26]
4.5 nM	CC#CC(=O)N1CC[C@]2(C1)C[C@H](n1nc(-c3ccc(C(O)C(C)C)cc3)c(C(N)=O)c1N)C2 (stereo partly shown) [Example 19]
1.4 nM	CC#CC(=O)N1CC[C@]2(C1)C[C@H](n1nc(-c3ccc(CCO)cc3)c(C(N)=O)c1N)C2 [Example 25]
9.3 nM	CC#CC(=O)N1CC[C@]2(C1)C[C@H](n1nc(-c3ccc(C(C)OC)cc3)c(C(N)=O)c1N)C2 (stereo partly shown) [Example 10]
2 nM	CC#CC(=O)N1CC[C@]2(C1)C[C@H](n1nc(-c3ccc(COC)cc3)c(C(N)=O)c1N)C2 [Example 5]
150 nM	C=CC(=O)N1CC[C@]2(C1)C[C@H](n1nc(-c3ccc(C(O)C(C)C)cc3)c(C(N)=O)c1N)C2 (stereo partly shown) [Example 18]
3.6 nM	CC#CC(=O)N1CC[C@]2(C1)C[C@H](n1nc(-c3ccc(C(C)OCC)cc3)c(C(N)=O)c1N)C2 (stereo partly shown) [Example 15]
1.8 nM	CCC#CC(=O)N1CC[C@]2(C1)C[C@H](n1nc(-c3ccc(C(C)OCC)cc3)c(C(N)=O)c1N)C2 (stereo partly shown) [Example 16]
2.2 nM	CC#CC(=O)N1CC[C@]2(C1)C[C@H](n1nc(-c3ccc(COCC)cc3)c(C(N)=O)c1N)C2 [Example 11]
12 nM	CC#CC(=O)N1CC[C@]2(C1)C[C@H](n1nc(-c3ccc(S(C)(=O)=O)cc3)c(C(N)=O)c1N)C2 [Example 27]
2.5 nM	CC#CC(=O)N1CC[C@]2(C1)C[C@H](n1nc(-c3ccc(CO)cc3)c(C(N)=O)c1N)C2 [Example 21]

What follows are compounds tested on EGFR phosphorylation in A431 cells (assay: Inhibition of EGFR autophosphorylation in A431 human epithelial cells stimulated with EGF). Conditions: A-431, 16 hours compound, EGF 60 ng/mL 10 minutes, read-out: A431 p-EGFR IC50.
Assay type: cell-based
From the text: as §1
Inhibition of EGFR Autophosphorylation in A431 Human Epithelial Cells Stimulated with Epithelial Growth Factor
A431 cells (ATCC # CRL-1555 FZ) are thawed and plated in DMEM containing 10% FBS in a 384-well tissue culture treated plate at 15,000 cells/well. After incubating for 24 hours at 37° C., 5% CO2, the cells are treated with test compound (1% DMSO final concentration) and incubated for 16 hours at 37° C., 5% CO2. EGF (Millipore, 01-107) is added at a final concentration of 60 ng/mL and incubated for 10 minutes. The medium is removed, the cells are lysed, and phospho EGFR is measured (Meso Scale Diagnostics, N31CB-1).

IC50	SMILES
3000 nM	CC#CC(=O)N1CC[C@]2(C1)C[C@H](n1nc(-c3ccc(C(O)C(C)C)cc3)c(C(N)=O)c1N)C2 (stereo partly shown) [Example 19]
> 10000 nM	CC#CC(=O)N1CC[C@]2(C1)C[C@H](n1nc(-c3ccc(CCO)cc3)c(C(N)=O)c1N)C2 [Example 25]
6100 nM	CC#CC(=O)N1CC[C@]2(C1)C[C@H](n1nc(-c3ccc(COC)cc3)c(C(N)=O)c1N)C2 [Example 5]
> 10000 nM	CC#CC(=O)N1CCC[C@]2(C1)C[C@H](n1nc(-c3ccc(COC)cc3)c(C(N)=O)c1N)C2 [Example 9]
> 10000 nM	CC#CC(=O)N1CC[C@]2(C1)C[C@H](n1nc(-c3ccc(S(C)(=O)=O)cc3)c(C(N)=O)c1N)C2 [Example 27]
